For assay [1], the target named is catalytic domain of human Bub1 (amino acids 704-1085) (Homo sapiens (Human), UniProt O43683). The experiment in a line: Bub1 kinase assay (TR-FRET). Particulars: 10 μM ATP, 1 μM peptide substrate; read-out: Biological Assay 1: Bub1 kinase assay median IC50. The assay is classed as biochemical. The essentials: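 Phosphoserine product detected by TR-FRET (Eu-labeled anti-mouse IgG/anti-phosphoserine antibody to streptavidin-XL665) after 1 h at 22 °C. IC50 from 4-parameter logistic fit.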
Background: In TR-FRET formats the signal depends on donor and acceptor labels being close together.

Assay [2] concerns HeLa cells. Description: Proliferation assay (HeLa cell line). In kind it is cell-based. Particulars: read-out: Biological Assay 2: Proliferation assay (HeLa cell line) median IC50.
Setting [3] is: Homo sapiens, 96 h, 4 days, crystal violet.

Structures can show the parent of a compound that is named as a salt. Where two headings read alike, the source gives them in different places.

Chain of catalytic domain of human Bub1 (amino acids 704-1085) (O43683 704-1085): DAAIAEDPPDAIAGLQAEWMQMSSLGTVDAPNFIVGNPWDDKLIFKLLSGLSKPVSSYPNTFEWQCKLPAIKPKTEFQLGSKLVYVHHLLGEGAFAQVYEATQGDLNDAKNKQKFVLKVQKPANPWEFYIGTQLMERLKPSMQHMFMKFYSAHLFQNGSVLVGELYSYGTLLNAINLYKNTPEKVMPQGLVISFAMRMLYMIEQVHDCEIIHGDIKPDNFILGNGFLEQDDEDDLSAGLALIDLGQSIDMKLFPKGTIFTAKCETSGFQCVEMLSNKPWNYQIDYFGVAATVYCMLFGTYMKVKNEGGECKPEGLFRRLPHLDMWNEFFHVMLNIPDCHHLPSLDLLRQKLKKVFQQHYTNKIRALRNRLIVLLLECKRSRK

With `CCOc1cc(F)c(Cn2nc(-c3ncc(OC)c(Nc4ccncc4CO)n3)c3ccccc32)c(F)c1` [Example 8-4, [4-({2-[1-(4-ethoxy-2,6-difluorobenzyl)-1H-indazol-3-yl]-5-methoxypyrimidin-4-yl}amino)pyrimidin-3-yl]methanol], the IC50 in assay [1] came to 13 nM; in assay [2] (4 days, crystal violet), 5000 nM.
With `COc1cnc(-c2nn(Cc3cccc(CC(C)(C)O)c3)c3ccccc23)nc1Nc1ccncc1` [Example 9-2, 1-[3-({3-[5-methoxy-4-(pyridin-4-ylamino)pyrimidin-2-yl]-1H-indazol-1-yl}methyl)phenyl]-2-methylpropan-2-ol], the IC50 in assay [1] was 21 nM; in assay [2] (setting [3]) it was no less than 10000 nM.
For `COc1cnc(-c2nn(Cc3c(Cl)ccc(C(C)(C)O)c3Cl)c3ccccc23)nc1Nc1ccncc1` [Example 9-3, 2-[2,4-dichloro-3-({3-[5-methoxy-4-(pyridin-4-ylamino)pyrimidin-2-yl]-1H-indazol-1-yl}methyl)phenyl] propan-2-ol], the IC50 in assay [1] was 23 nM; in assay [2] (Homo sapiens, 96 h) it was 7000 nM.
Take `CCOc1cc(F)c(Cn2nc(-c3ncc(OC(F)F)c(Nc4ccncc4)n3)c3ccccc32)c(F)c1` [Example 10-1, 5-(difluoromethoxy)-2-[1-(4-ethoxy-2,6-difluorobenzyl)-1H-indazol-3-yl]-N-(pyridin-4 yl)pyrimidin-4-amine]: the IC50 was 12 nM in assay [1] and 2000 nM in assay [2] (setting [3]).
Taken in the same sequence, the figures for `CCOc1cc(F)c(Cn2nc(-c3ncc(O)c(N(c4ccncc4)C(F)F)n3)c3ccccc32)c(F)c1` [Example 10-3, 4-[(difluoromethyl) (pyridin-4-yl)amino]-2-[1-(4-ethoxy-2,6-difluorobenzyl)-1H-indazol-3-yl]pyrimidin-5-ol] were 360 nM and 9600 nM.
Take `COc1ccc(Cn2nc(-c3ncc(OCC(F)(F)F)c(Nc4ccncc4)n3)c3ccccc32)cc1` [Example 11-1, 2-[1-(4-methoxybenzyl)-1H-indazol-3-yl]-N-(pyridin-4-yl)-5-(2,2,2-trifluoroethoxy)pyrimidin-4-amine]: the IC50 was 18 nM in assay [1] and 8100 nM in assay [2] (Homo sapiens, 96 h).
Turning to `CCOc1cc(F)c(Cn2nc(-c3ncc(OCC(F)(F)F)c(Nc4ccncc4)n3)c3ccccc32)c(F)c1` [Example 11-2, 2-[1-(4-ethoxy-2,6-difluorobenzyl)-1H-indazol-3-yl]-N-(pyridin-4-yl)-5-(2,2,2-trifluoroethoxy) pyrimidin-4-amine], the IC50 in assay [1] was 10 nM; in assay [2] (setting [3]), no less than 10000 nM.
As to `OC[C@@H](O)COc1cnc(-c2nn(Cc3ccccc3F)c3ccccc23)nc1Nc1ccncc1` [Example 12-2, (2R)-3-({2-[1-(2-fluorobenzyl)-1H-indazol-3-yl]-4-(pyridin-4-ylamino)pyrimidin-5-yl}oxy)propane-1,2-diol], the IC50 is 4.6 nM in assay [1] and no less than 10000 nM in assay [2] (Homo sapiens, 96 h).
With `OC[C@H](O)COc1cnc(-c2nn(Cc3ccccc3F)c3ccccc23)nc1Nc1ccncc1` [Example 12-3], the IC50 was 4.8 nM in assay [1] and no less than 10000 nM in assay [2] (4 days, crystal violet).
`OCCOc1cnc(-c2nn(Cc3ccccc3F)c3ccccc23)nc1Nc1ccncc1` [Example 13-2, 2-({2-[1-(2-fluorobenzyl)-1H-indazol-3-yl]-4-(pyridin-4-ylamino)pyrimidin-5-yl}oxy)ethanol]: the IC50 in assay [1] is 7.2 nM; in assay [2] (Homo sapiens, 96 h), 9600 nM.
In the same order, the values of `CCOC(=O)c1cnccc1Nc1nc(-c2nn(Cc3ccccc3F)c3ccccc23)ncc1OCCO` [Example 13-3, ethyl 4-({2-[1-(2-fluorobenzyl)-1H-indazol-3-yl]-5-(2-hydroxyethoxy)pyrimidin-4-yl}amino)pyridine-3-carboxylate] are 17 nM and no less than 10000 nM.
Take `CNC(=O)c1cnccc1Nc1nc(-c2nn(Cc3ccccc3F)c3ccccc23)ncc1OCCO` [Example 13-4, 4-({2-[1-(2-fluorobenzyl)-1H-indazol-3-yl]-5-(2-hydroxyethoxy)-pyrimidin-4-yl}amino)-N-methylpyridine-3-carboxamide]: the IC50 came to 4.7 nM in assay [1] and 8000 nM in assay [2] (setting [3]).
As to `NC(=O)c1cnccc1Nc1nc(-c2nn(Cc3ccccc3F)c3ccccc23)ncc1OCCO` [Example 13-5, 4-({2-[1-(2-fluorobenzyl)-1H-indazol-3-yl]-5-(2-hydroxyethoxy)pyrimidin-4-yl}amino)pyridine-3-carboxamide], the values for the IC50 in assay [1] and in assay [2] (setting [3]) were 6.5 nM and no less than 10000 nM, respectively.
In the same order, the values of `O=C(OCCO)c1cnccc1Nc1nc(-c2nn(Cc3ccccc3F)c3ccccc23)ncc1OCCO` [Example 13-6, 2-hydroxyethyl 4-({2-[1-(2-fluorobenzyl)-1H-indazol-3-yl]-5-(2-hydroxyethoxy)pyrimidin-4-yl}amino)pyridine-3-carboxylate] are 8.6 nM and no less than 10000 nM.
On to `COc1ccc(Cn2nc(-c3ncc(OC4CC4)c(Nc4ccncc4)n3)c3ccccc32)cc1` [Example 14-1, 5-(cyclopropyloxy)-2-[1-(4-methoxybenzyl)-1H-indazol-3-yl]-N-(pyridin-4-yl)pyrimidin-4-amine], for which the IC50 in assay [1] is 3300 nM; in assay [2] (Homo sapiens, 96 h), no less than 10000 nM.
Taken in the same sequence, the figures for `OC[C@H](O)COc1cnc(-c2nn(Cc3ccccc3F)c3ccccc23)nc1Nc1ccncc1` [Example 15-2, (2S)-3-({2-[1-(2-fluorobenzyl)-1H-indazol-3-yl]-4-(pyridin-4-ylamino)pyrimidin-5-yl}oxy)propane-1,2-diol hydrochloride (1:1)] were 5.5 nM and no less than 10000 nM.
Turning to `CCOc1cc(F)c(Cn2nc(-c3ncc(OCCO)c(Nc4ccncc4)n3)c3ccccc32)c(F)c1` [Example 15-3, 2-({2-[1-(4-ethoxy-2,6-difluorobenzyl)-1H-indazol-3-yl]-4-(pyridin-4-ylamino)pyrimidin-5-yl}oxy)ethanol hydrochloride (1:1)], the IC50 was 5.7 nM in assay [1] and 1700 nM in assay [2] (4 days, crystal violet).
`COc1cnc(-c2nn(Cc3c(Cl)cccc3Cl)c3ccccc23)nc1Nc1ccncc1` [Example 15-4, 2-[1-(2,6-dichlorobenzyl)-1H-indazol-3-yl]-5-methoxy-N-(pyridin-4-yl)pyrimidin-4-amine hydrochloride (1:1)]: the IC50 in assay [1] was 7.3 nM; in assay [2] (Homo sapiens, 96 h), no less than 10000 nM.
Consider `COc1cnc(-c2nn(Cc3c(Cl)ccc(CO)c3Cl)c3ccccc23)nc1Nc1ccncc1` [Example 15-5, [2,4-dichloro-3-({3-[5-methoxy-4-(pyridin-4-ylamino)pyrimidin-2-yl]-1H-indazol-1-yl}methyl)phenyl] methanol hydrochloride (1:1)], for which the IC50 is 12 nM in assay [1] and 9900 nM in assay [2] (4 days, crystal violet).
Regarding `CCOc1cc(F)c(Cn2nc(-c3nccc(N(C(C)=O)c4ccncc4)n3)c3ccccc32)c(F)c1` [Example 16-1, N-{2-[1-(4-ethoxy-2,6-difluorobenzyl)-1H-indazol-3-yl]pyrimidin-4-yl}-N-(pyridin-4-yl)acetamide], the IC50 is 170 nM in assay [1] and 2800 nM in assay [2] (setting [3]).
Taken in the same sequence, the figures for `CCOc1cc(F)c(Cn2nc(-c3nccc(N(C(=O)COC)c4ccncc4)n3)c3ccccc32)c(F)c1` [Example 16-2, N-{2-[1-(4-ethoxy-2,6-difluorobenzyl)-1H-indazol-3-yl]pyrimidin-4-yl}-2-methoxy-N-(pyridin-4-yl)acetamide] were 23 nM and 3500 nM.

The values are drawn from patent US10266548B2, “Substituted benzylindazoles for use as Bub1 kinase inhibitors in the treatment of hyperproliferative diseases” (Bayer Intellectual Property GmbH, priority 2011, dated 2019).
